This is an account of results in US8426367B2, “Peptides specific for human blood outgrowth endothelial cells” (The University of North Carolina at Chapel Hill, priority 2007, dated 2013).

Experiment [1] deals with panel of other cell types. Kind of experiment: Binding specificity: biopanning of HBOEC-selected phage clones on a panel of other cell types. Also on record: species or system human. The conditions noted are these: 1.10^11 phage, 1 hour at 4° C., FIG. 3. On the procedure:
Lymphocytes and neutrophils were obtained from the same preparation. Lymphocytes were collected from the supernatant of the cultured buffy coat mononuclear cells that were allowed to adhere for 48 hours. The cell concentration was adjusted to 1.10^5 cells per ml.
Neutrophils were collected from the lower portion of the density gradient preparation. The upper layers were removed and processed as described above. The neutrophil-rich Histopaque layer was transferred to a centrifuge tube and diluted in fresh RPMI to wash the cells free of Histopaque. The suspension was centrifuged at 700×g for 15 min at room temperature. The supernatant was aspirated and the pellet resuspended in 10 ml of RPMI and centrifuged at 700×g for 10 min at room temperature. Contaminating red cells were lysed by quickly re-suspending the pellet in sterile water at 4° C. After 30 sec an equal volume of 1.8% saline solution was added in order to return the solution to isotonicity. The suspension was then centrifuged for 10 min at 250×g at 4° C. The cell lysis step was repeated. The final pellet was re-suspended and concentration adjusted to 1.10^5 cells per ml.
(§1) HUVEC were from the American Type Culture Collection (ATCC, Manassas, Va.). Passages 4 to 8 were used in this study. HUVEC were cultured in EGM-MV medium (Cambrex) at 37° C. in an incubator with humid atmosphere and 5% CO2.
Peripheral blood human HL-60 promyelocytic cells from the American Type Culture Collection (ATCC) were cultured in RPMI 1640 medium supplemented with 20% fetal bovine serum.
The specificity of HBOEC-selected phage clones was determined by biopanning on a panel of other cell types. The biopanning procedure was carried as described above with the exception of including the pre-clearing incubation step.

The subject of experiment [2] is human blood outgrowth endothelial cells (HBOEC). Kind of experiment: Homogeneous phage recovery (relative binding) on HBOEC. The conditions noted are these: for concentration dependence of homogeneous recovery (binding to HBOEC): 1.10^9, 1.10^10, 1.10^11 pfu, 1 h at 4° C.; for concentration dependence of homogeneous recovery (binding to HBOEC) / relative recovery / affinity-avidity among the four selected phage clones: FIG. 1B; for relative recovery / affinity-avidity among the four selected phage clones: four clones with different consensus motifs. On the procedure: Cells at 80% confluence were detached by treating with 0.05% trypsin-EDTA, washed once with EGM-2 medium and resuspended in EGM-2 containing 1% BSA at 1.10^5 cells per ml. In the pre-clearing step, 1 ml of HUVEC suspension at 1.10^5 cells per ml were incubated with 10 μl of PhD-12 peptide phage display system (New England Biolabs, Beverly, Mass.) within 1.5 ml Eppendorf tube for 2 hours at 4° C.; the mixture was then centrifuged. In the screening step, the unbound phage pool remaining in the supernatant was transferred to a fresh tube and incubated with 1 ml of HBOEC at 1.10^5 cells per ml. After 1 hour incubation at 4° C., the cell-phage complexes were separated by centrifugation. Following five intensive washes with TBS-0.5% Tween-20 buffer the bound phage was non-specifically eluted with 0.2 M Glycine-HCl buffer (pH 2.2) for 10 min. The eluate was immediately neutralized by 1M Tris.HCl buffer (pH 9.0). An aliquot of the eluted phage was used for determining titer by plaque assay. The rest of the phage eluate was amplified in mid-log phase E. coli ER2738 (New England Biolabs), and purified by precipitation with polyethylene glycol. An aliquot of the amplified phage was subsequently re-applied to newly trypsinized cells for a total of three biopanning rounds and two amplification steps.
Once isolated individual phage clones were subjected to evaluation of relative binding. High titer stocks of homogeneous phage were generated. Serially diluted phage (1.10^9 pfu, 1.10^10 pfu, and 1.10^11 pfu) were incubated with HBOEC (1.10^5 cells) for 1 h at 4° C. and then subjected to the same wash protocol used for the selection experiments. In parallel the same procedure was carried in a blocked Eppendorf tube without HBOEC to test for non specific binding for each selected sequence to the plastic container. Binding ratio is defined as recovery of phage bound to the target cells normalized to the recovery of phage non-specifically bound to the plastic.

The test system of a further experiment is HUVEC. Kind of experiment: Cell binding assay: HUVEC attachment to peptide-modified substrates. It is filed as cell-based, human. The conditions noted are these: compared to RGE negative controls; FIG. 8D. On the procedure:
as §1
Peptide sequences were immobilized to methacrylic terpolymers via one step chain transfer controlled free radical polymerization as described by Fussell and Cooper (Fussell 2004a and Fussell 2004b). The monomers used in the reactions were n-hexyl methacrylate (HMA) (Alfa Aesar, Ward Hill, Mass.), methyl methacrylate (MMA) (ACROS Organics, Pittsburgh, Pa.), and methacrylic acid (MAA) (ACROS Organics, Pittsburgh, Pa.), with 2,2-azobisisobutyronitrile (AIBN) (Aldrich Chemical, Milwaukee, Wis.) as the initiator. The molar ratio of the monomers in the reaction mixture was HMA:MMA:MAA—20:78:2. The peptides were added with the monomers after the solvent was purged with argon. The reaction temperature for the polymerization was 55-60° C. and reactions were carried out overnight.
Peptide grafted materials were coated on round microscope cover glass slides. Glass slides were sterilized by immersion in 70% ethanol. […] Digital images were taken from 15 random fields per sample and quantified by computer assisted analysis.

Take “MPTLTRAPHTAC (Human outgrowth endothelial cell-binding peptides isolated from phage library) [SEQ ID NO:37]”: the “recovery on cell types other than the target cells” value in experiment [1] is “No significant recovery”. Also, in experiment [2], the “concentration dependence of homogeneous recovery (binding to HBOEC)” value (shortened to “concentration dependence”) is given as “bind HBOEC over a range of concentrations in a dose-dependent manner” and the “relative recovery / affinity-avidity among the four selected phage clones” value is given as “lowest affinity/avidity”.
Turning to “SPPPSNAGSHHV (Human outgrowth endothelial cell-binding peptides isolated from phage library) [SEQ ID NO:32]”, the “recovery on cell types other than the target cells” value in experiment [1] is given as “No significant recovery”. Further, the “concentration dependence” value in experiment [2] is listed as “bind HBOEC over a range of concentrations in a dose-dependent manner”.
For “SVPPRYTLTLQW (Human outgrowth endothelial cell-binding peptides isolated from phage library) [SEQ ID NO:7]”, the “recovery on cell types other than the target cells” value in experiment [1] is “No significant recovery”. Besides, the “concentration dependence” value in experiment [2] is “bind HBOEC over a range of concentrations in a dose-dependent manner”.
As for “TPSLEQRTVYAK (Human outgrowth endothelial cell-binding peptides isolated from phage library) [SEQ ID NO:17]”, in experiment [1], the “recovery on cell types other than the target cells” value is “No significant recovery”. Further, in experiment [2], the “concentration dependence” value is on record as “bind HBOEC over a range of concentrations in a dose-dependent manner” and the “relative recovery / affinity-avidity among the four selected phage clones” value was “highest recovery”. In experiment [2] (1.10^11 pfu homogeneous phage, 1.10^5 HBOEC, 1 hour at 4° C., FIG. 2), the “binding ratio (recovery of phage bound to target cells normalized to phage non-specifically bound to plastic)” value is 43±20. For the same substance, in experiment [2] (1.10^11 pfu, FIG. 2), the “relative recovery among phage bearing the TP(S/T/G) motif” value is “highest recovery”.
In the case of fibronectin, the HUVEC attachment result in the experiment with HUVEC is given as “statistically significant”.
